Test: Solubility in an organic solvent (toluene)
Assay type: physicochemical
Details: for Solubility: grams of PXX compound dissolving in 10 grams of toluene
Experimental: The melting point and the mesophase transition temperature of the PXX compound can be determined by TG-DTA (thermogravimetry/differential thermal analysis) and DSC (differential scanning calorimetry). Further, solubility in an organic solvent was measured. […] In Table 1, the mesophase transition temperature is denoted as “transition temperature”. […]

Row | Solubility | Amount dissolved in toluene (in 100 grams of toluene) | Compound
1 | 0.37 g | 0.37 grams | CC(C)c1ccc(-c2ccc3oc4ccc5c(-c6ccc(C(C)C)cc6)ccc6oc7ccc2c3c7-c4c65)cc1 [Comparative Example 2D]
2 | 1.5 g | – | CC(C)Cc1ccc(-c2ccc3oc4ccc5c(-c6ccc(CC(C)C)cc6)ccc6oc7ccc2c3c7-c4c65)cc1 [Working Example 2A]
3 | 1.3 g | – | CC(C)CCc1ccc(-c2ccc3oc4ccc5c(-c6ccc(CCC(C)C)cc6)ccc6oc7ccc2c3c7-c4c65)cc1 [Working Example 2B]

— US20140291659A1, “DIOXAANTHANTHRENE COMPOUND, LAMINATED STRUCTURE AND FORMATION METHOD THEREOF, AND ELECTRONIC DEVICE AND MANUFACTURING METHOD THEREOF” (Sony Corporation, priority 2011, published 2014)
